Patent publication US9802929B2, “Benzo five-membered nitrogen heterocyclic piperidine or piperazine derivatives and preparation methods and pharmaceutical compositions thereof” (Shenyang Haiwang Biotechnology Co., Ltd., priority 2012, dated 2017)
pEC50: −log10 of the molar value.

How the values were obtained:
[1] = system: In-Vitro Vascular Smooth Muscle of Rabbits; test: Relaxant effect on in vitro rabbit vascular smooth muscle contraction induced by hyperkalemia solution; settings: for pEC50: Oryctolagus cuniculus; for relaxant effect against hyperkalemia solution contraction (in words): rabbit vascular smooth muscle
α1 receptors = test: Antagonism of α receptor agonist (noradrenaline / phenylephrine) cumulative contraction of rabbit aorta, pA2; settings: for PA2 value against Phenylephrine contraction: Phenylephrine cumulative contraction; for PA2 value against NA contraction: noradrenaline (NA) cumulative contraction
Source text: (§1) Cut the chest open quickly after stunning, strip out the descending aorta, then after removing the surrounding connective tissue and adipose tissue (if performed serotonin receptor antagonist experiments, endothelial cells should be removed using a smooth stainless steel bars), cut the vessels into 3-5 mm vascular ring, then pass the steel hook through the blood vessel ring, with one end is fixed to the vent hook and the other end connected to the tension transducer, then place the specimens into bath tube containing 20 mL of nutrient solution, and record tension change by tension transducer. Maintain tube temperature at 37±0.5° C., and pass bubbles (95% O2+5% CO2) into the solution as a speed of 1-2 bubbles/minute. Place an initial load of 1.5 g on the rings, and change nutrient every 20 minutes, then balance for 2 hours and start test after baseline readings are stabilized.
After the tension is stabilized, record a certain length of the curve, and add NA (10^−8-10^−4 mol/L) to the tube until a maximum response is achieved, and then record the curve. Then wash the specimen with K—H solution repeatedly, balance for 1 h, add compound II-36 (3×10^−7 mol/L), and 20 minutes later, add NA following a same procedure. Mark NA contraction as ordinate using maximum response as 100% base. […] The larger the PA2 value, the stronger the antagonist effect. It is calculated based on the values of the attached figures by software.
After the tension is stabilized, record a certain length of the curve, and add NA (10^−8-10^−4 mol/L) to the tube until a maximum response is achieved, and then record the curve. Then wash the specimens repeatedly with K—H solution, and refresh K—H solution every 20 minutes, and balance for 60 minutes to allow baseline values are stabilized; then add doxazosin (10^−7 mol/L) and after 15 minutes, add NA in the same way (10^−8-6×10^−5 mol/L). Mark NA contraction as ordinate using maximum response as 100% base. […] The PA2 value of positive control doxazosin is 7.52±0.04 against NA contraction of rabbit aorta.
(§2) After the tension is stabilized, record a certain length of the curve, and add NA (3×10^−7-6×10^−5 mol/L) to the tube until a maximum response is achieved, and then record the curve. Then wash the specimen with K—H solution repeatedly, balance for 1 h, add compound II-65 (3×10^−6 mol/L), and 20 minutes later, add NA (3×10^−7-3×10^−4 mol/L) following a same procedure. Mark NA contraction as ordinate using maximum response as 100% base. […] PA2 value of compound II-65 is 6.02±0.13 against NA contraction effect on rabbit aorta.
After above procedures, wash the specimen repeatedly with K—H solution, balance for 1 hour, add doxazosin (10^−7 mol/L), and add NA in the same way after 15 minutes. Mark NA contraction as ordinate using maximum response as 100% base. […] The PA2 value of positive control doxazosin is 7.16±0.24 against NA contraction of rabbit aorta.
as §2, with “Phenylephrine (10^−6-6×10^−3” for “NA (3×10^−7-6×10^−5”, “II-68 (3×10^−8” for “II-65 (3×10^−6”, “Phenylephrine” for “NA (3×10^−7-3×10^−4 mol/L)”, “Phenylephrine” for “NA”, “II-68” for “II-65”, “8.45±0.03” for “6.02±0.13”

Kunming mice = test: Bone marrow micronucleus test; settings: mouse, in vivo
Procedure: After four days of continuous administration, perform bone marrow micronucleus test on the 5th day.
Positive contro, Cyclophosphamide 60 mg/kg/day; negative control, saline solution 0.1 ml/10 g/day. After four days of continuous administration, perform bone marrow micronucleus test on the 5th day.
The mice were sacrificed by cervical dislocation, and quickly stripped out of the femur and sternum;
blood and muscles were removed, epiphysis was cleaned; then sternum bone marrow was transfer with a hemostat squeeze onto clean slides with drops of calf serum or wash the femoral the marrow with fetal calf serum directly onto clean slides; after mixing, adjust slides well; then put the adjusted and aired slide into a staining jar filled with methanol, and allow to fix for 15 minutes; and then take it out and place in air until dry out; then, use freshly prepared Giemsa application solution (one sample of Giemsa stock solution and nine samples of phosphate buffer pH 6.8), stained for 10 minutes to wash away slide dye with small stream of water, and then observe under a microscope after it is dried.

SD rats = test: Effect on blood pressure of urethane-anesthetized SD rats; format: in vivo; settings: 4.0 mg/kg orally
Procedure: Four SD rats were anesthetized with urethane ([…]); after vital signs were stable, measure blood pressure through carotid artery cannulation. After blood pressure is stabilized, compound II-36 was administered orally (4.0 mg/kg, body weight), and blood pressure changes with time were recorded; study results are shown in Table 4, 5 and 6.

5-HT2A receptors = test: Antagonism of 5-HT cumulative contraction of rabbit aorta, pA2
Source text: as §1
After the tension is stabilized, record a certain length of the curve, and add 5-HT (10^−7-3×10^−4 mol/L) to the tube until a maximum response is achieved, and then record the curve. Then wash the specimen with K—H solution repeatedly, balance for 1.5 h, add compound II-36 (3×10^−6 mol/L), and 20 minutes later, add 5-HT following a same procedure. Mark 5-HT contraction as ordinate using maximum response as 100% base. […]

[2] = relaxation of rabbit aortic rings contracted by hyperkalemia solution (K+ 60 mmol/L)
[3] = time after administration 90, n = 4

Compound	pEC50 [1, 2]	relaxant effect against hyperkalemia solution contraction (in words) [1]	PA2 value against Phenylephrine contraction (α1 receptors)	PA2 value against NA contraction (α1 receptors)	polychromatic erythrocytes with micronucleus (Kunming mice; both, Kunming, 4 days)	bone marrow micronucleus test result (Kunming mice)	hypotensive effect (in words) (SD rats)	time until blood pressure recovered to the level before administration (SD rats) [h]	mean arterial pressure (MAP) (SD rats; time after administration 0, n = 4) [mmHg]	mean arterial pressure (MAP) (SD rats; time after administration 15, n = 4) [mmHg]	mean arterial pressure (MAP) (SD rats; time after administration 30, n = 4) [mmHg]	mean arterial pressure (MAP) (SD rats; time after administration 60, n = 4) [mmHg]	Systolic blood pressure (SBP) (SD rats; [3]) [mmHg]	mean arterial pressure (MAP) (SD rats; [3]) [mmHg]	mean arterial pressure (MAP) (SD rats; time after administration 120, n = 4) [mmHg]	mean arterial pressure (MAP) (SD rats; time after administration 150, n = 4) [mmHg]	mean arterial pressure (MAP) (SD rats; time after administration 180, n = 4) [mmHg]	mean arterial pressure (MAP) (SD rats; time after administration 210, n = 4) [mmHg]	−logEC50 [1, 2]	PA2 value against 5-HT contraction (5-HT2A receptors)
FC(F)(F)c1cccc(N2CCN(CCCCn3cnc4ccccc43)CC2)c1 [Compound II-36, 1-(4-(4-(3-trifluoromethylphenyl)piperazin-1-yl)butyl)-1H-benzimidazole]	5.34	significant relaxant effect	7.37±0.08	7.37±0.08	2.0±0.333 ‰	negative	significant hypotensive effect	3.5	91.50	73.40	74.52	72.77	98.71	68.81	83.12	84.47	84.83	88.54		
FC(F)(F)c1cccc(N2CCN(CCCCn3nnc4ccccc43)CC2)c1 [Compound II-65, 1-(4-(4-(3-trifluoromethylphenyl)piperazin-1-yl)butyl)-1H-benzotriazole]		relatively significant relaxant effect		6.02±0.13															5.55 ± 0.03	6.726±0.089
c1ccc2c(c1)nnn2CCCCN1CCN(c2nsc3ccccc23)CC1 [Compound II-68, 3-(4-(4-(1H-benzotriazol-1-yl)butyl)piperazin-1-yl)benzisothiazole]	4.77		8.45±0.03																	8.86±0.14
